Assay results reported in ChEMBL document CHEMBL4680144, “N-thiadiazole-4-hydroxy-2-quinolone-3-carboxamides bearing heteroaromatic rings as novel antibacterial agents: Design, synthesis, biological evaluation and target identification” (Eur J Med Chem, 2020).
≈ marks a conversion by molar mass, not a printed value.

Experiments:
Staphylococcus aureus [1] = experiment: Antibacterial activity against wild type methicillin-sensitive Staphylococcus aureus ATCC 29213 assessed as inhibition of bacterial growth incubated for 18 to 24 hrs by broth microdilution method; type: functional; details: time 18-24 hrs
[2] = Inhibition of Staphylococcus aureus Gyrase B using linear pBR322 DNA as substrate incubated for 30 mins in presence of ATP by ADP-Glo assay
Staphylococcus aureus [3] = experiment: Antibacterial activity against methicillin-resistant Staphylococcus aureus clinical isolate 15-1 assessed as inhibition of bacterial growth incubated for 18 to 24 hrs by broth microdilution method; type: functional; details: time 18-24 hrs
Staphylococcus aureus [4] = experiment: Antibacterial activity against methicillin-resistant Staphylococcus aureus clinical isolate 15-2 assessed as inhibition of bacterial growth incubated for 18 to 24 hrs by broth microdilution method; type: functional; details: time 18-24 hrs
Staphylococcus aureus [5] = experiment: Antibacterial activity against methicillin-resistant Staphylococcus aureus clinical isolate 15-3 assessed as inhibition of bacterial growth incubated for 18 to 24 hrs by broth microdilution method; type: functional; details: time 18-24 hrs
Staphylococcus aureus [6] = experiment: Antibacterial activity against methicillin-resistant Staphylococcus aureus clinical isolate 15-6 assessed as inhibition of bacterial growth incubated for 18 to 24 hrs by broth microdilution method; type: functional; details: time 18-24 hrs
Staphylococcus aureus [7] = experiment: Antibacterial activity against methicillin-resistant Staphylococcus aureus clinical isolate 15-7 assessed as inhibition of bacterial growth incubated for 18 to 24 hrs by broth microdilution method; type: functional; details: time 18-24 hrs
Staphylococcus aureus [8] = experiment: Antibacterial activity against methicillin-resistant Staphylococcus aureus clinical isolate 15-8 assessed as inhibition of bacterial growth incubated for 18 to 24 hrs by broth microdilution method; type: functional; details: time 18-24 hrs
Staphylococcus aureus [9] = experiment: Antibacterial activity against methicillin-resistant Staphylococcus aureus clinical isolate 15-9 assessed as inhibition of bacterial growth incubated for 18 to 24 hrs by broth microdilution method; type: functional; details: time 18-24 hrs
Staphylococcus aureus [10] = experiment: Antibacterial activity against methicillin resistant and vancomycin-intermediate sensitive Staphylococcus aureus ATCC 700699 assessed as inhibition of bacterial growth incubated for 18 to 24 hrs by broth microdilution method; type: functional; details: time 18-24 hrs
Staphylococcus aureus [11] = experiment: Antibacterial activity against methicillin resistant and vancomycin-intermediate sensitive Staphylococcus aureus ATCC 700788 assessed as inhibition of bacterial growth incubated for 18 to 24 hrs by broth microdilution method; type: functional; details: time 18-24 hrs
[12] = test system: Staphylococcus epidermidis; experiment: Antibacterial activity against methicillin-sensitive Staphylococcus epidermidis clinical isolate 15-3 assessed as inhibition of bacterial growth incubated for 18 to 24 hrs by broth microdilution method; type: functional; details: time 18-24 hrs
[13] = test system: Staphylococcus epidermidis; experiment: Antibacterial activity against methicillin-sensitive Staphylococcus epidermidis clinical isolate 15-4 assessed as inhibition of bacterial growth incubated for 18 to 24 hrs by broth microdilution method; type: functional; details: time 18-24 hrs
[14] = test system: Staphylococcus epidermidis; experiment: Antibacterial activity against methicillin-resistant Staphylococcus epidermidis clinical isolate 15-1 assessed as inhibition of bacterial growth incubated for 18 to 24 hrs by broth microdilution method; type: functional; details: time 18-24 hrs
[15] = test system: Staphylococcus epidermidis; experiment: Antibacterial activity against methicillin-resistant Staphylococcus epidermidis clinical isolate 15-2 assessed as inhibition of bacterial growth incubated for 18 to 24 hrs by broth microdilution method; type: functional; details: time 18-24 hrs
[16] = test system: Staphylococcus epidermidis; experiment: Antibacterial activity against methicillin-resistant Staphylococcus epidermidis clinical isolate 15-3 assessed as inhibition of bacterial growth incubated for 18 to 24 hrs by broth microdilution method; type: functional; details: time 18-24 hrs
Enterococcus faecalis [17] = experiment: Antibacterial activity against Enterococcus faecalis clinical isolate 15-1 assessed as inhibition of bacterial growth incubated for 18 to 24 hrs by broth microdilution method; type: functional; details: time 18-24 hrs
Enterococcus faecalis [18] = experiment: Antibacterial activity against Enterococcus faecalis clinical isolate 15-2 assessed as inhibition of bacterial growth incubated for 18 to 24 hrs by broth microdilution method; type: functional; details: time 18-24 hrs
Enterococcus faecium [19] = experiment: Antibacterial activity against Enterococcus faecium clinical isolate 15-1 assessed as inhibition of bacterial growth incubated for 18 to 24 hrs by broth microdilution method; type: functional; details: time 18-24 hrs
Enterococcus faecium [20] = experiment: Antibacterial activity against Enterococcus faecium clinical isolate 15-2 assessed as inhibition of bacterial growth incubated for 18 to 24 hrs by broth microdilution method; type: functional; details: time 18-24 hrs
Enterococcus faecalis [21] = experiment: Antibacterial activity against vancomycin-resistant Enterococcus faecalis ATCC 51299 assessed as inhibition of bacterial growth incubated for 18 to 24 hrs by broth microdilution method; type: functional; details: time 18-24 hrs
Enterococcus faecalis [22] = experiment: Antibacterial activity against vancomycin-resistant Enterococcus faecalis ATCC 700802 assessed as inhibition of bacterial growth incubated for 18 to 24 hrs by broth microdilution method; type: functional; details: time 18-24 hrs
Enterococcus faecalis [23] = experiment: Antibacterial activity against vancomycin-resistant Enterococcus faecalis ATCC 51575 assessed as inhibition of bacterial growth incubated for 18 to 24 hrs by broth microdilution method; type: functional; details: time 18-24 hrs

Structure (SMILES)	MIC (Staphylococcus aureus [1]) [µg/mL]	IC50 [2] [nM]	MIC (Staphylococcus aureus [3]) [µg/mL]	MIC (Staphylococcus aureus [4]) [µg/mL]	MIC (Staphylococcus aureus [5]) [µg/mL]	MIC (Staphylococcus aureus [6]) [µg/mL]	MIC (Staphylococcus aureus [7]) [µg/mL]	MIC (Staphylococcus aureus [8]) [µg/mL]	MIC (Staphylococcus aureus [9]) [µg/mL]	MIC (Staphylococcus aureus [10]) [µg/mL]	MIC (Staphylococcus aureus [11]) [µg/mL]	MIC [12] [µg/mL]	MIC [13] [µg/mL]	MIC [14] [µg/mL]	MIC [15] [µg/mL]	MIC [16] [µg/mL]	MIC (Enterococcus faecalis [17]) [µg/mL]	MIC (Enterococcus faecalis [18]) [µg/mL]	MIC (Enterococcus faecium [19]) [µg/mL]	MIC (Enterococcus faecium [20]) [µg/mL]	also measured
CCn1c(=O)c(C(=O)Nc2nnc(-c3ccn(C)n3)s2)c(O)c2ccccc21	3.12 (≈ 7.87 µM)	490	–	–	–	–	–	–	–	–	–	–	–	–	–	–	–	–	–	–	–
CCOc1cccc(-c2nnc(NC(=O)c3c(O)c4ccccc4n(CC)c3=O)s2)c1	3.12 (≈ 7.15 µM)	1690	–	–	–	–	–	–	–	–	–	–	–	–	–	–	–	–	–	–	–
CCn1c(=O)c(C(=O)Nc2nnc(-c3cccnc3)s2)c(O)c2ccccc21	0.39 (≈ 0.991 µM)	240	0.5 (≈ 1.27 µM)	0.5 (≈ 1.27 µM)	0.5 (≈ 1.27 µM)	0.5 (≈ 1.27 µM)	0.5 (≈ 1.27 µM)	0.5 (≈ 1.27 µM)	0.5 (≈ 1.27 µM)	1 (≈ 2.54 µM)	1 (≈ 2.54 µM)	2 (≈ 5.08 µM)	1 (≈ 2.54 µM)	1 (≈ 2.54 µM)	1 (≈ 2.54 µM)	1 (≈ 2.54 µM)	> 64	> 64	> 64	> 64	MIC (Enterococcus faecalis [21]): > 64 µg/mL; MIC (Enterococcus faecalis [22]): > 64 µg/mL; MIC (Enterococcus faecalis [23]): > 64 µg/mL
CCCn1c(=O)c(C(=O)Nc2nncs2)c(O)c2ccccc21	3.12 (≈ 9.44 µM)	460	–	–	–	–	–	–	–	–	–	–	–	–	–	–	–	–	–	–	–
CCCCc1nnc(NC(=O)c2c(O)c3ccccc3n(CC)c2=O)s1	0.1 (≈ 0.268 µM)	990	2 (≈ 5.37 µM)	2 (≈ 5.37 µM)	2 (≈ 5.37 µM)	2 (≈ 5.37 µM)	4 (≈ 10.7 µM)	2 (≈ 5.37 µM)	2 (≈ 5.37 µM)	4 (≈ 10.7 µM)	4 (≈ 10.7 µM)	2 (≈ 5.37 µM)	2 (≈ 5.37 µM)	2 (≈ 5.37 µM)	2 (≈ 5.37 µM)	2 (≈ 5.37 µM)	2 (≈ 5.37 µM)	2 (≈ 5.37 µM)	2 (≈ 5.37 µM)	2 (≈ 5.37 µM)	MIC (Enterococcus faecalis [21]): 8 µg/mL (≈ 21.5 µM); MIC (Enterococcus faecalis [22]): 8 µg/mL (≈ 21.5 µM); MIC (Enterococcus faecalis [23]): 8 µg/mL (≈ 21.5 µM)
CCn1c(=O)c(C(=O)Nc2nnc(C3CCCCC3)s2)c(O)c2ccccc21	12.5 (≈ 31.4 µM)	550	–	–	–	–	–	–	–	–	–	–	–	–	–	–	–	–	–	–	–
CCn1c(=O)c(C(=O)Nc2nnc(-c3ccc([N+](=O)[O-])cc3)s2)c(O)c2ccccc21	50 (≈ 114 µM)	1610	–	–	–	–	–	–	–	–	–	–	–	–	–	–	–	–	–	–	–
CCCc1nnc(NC(=O)c2c(O)c3ccccc3n(CC)c2=O)s1	0.39 (≈ 1.09 µM)	270	2 (≈ 5.58 µM)	2 (≈ 5.58 µM)	2 (≈ 5.58 µM)	2 (≈ 5.58 µM)	4 (≈ 11.2 µM)	2 (≈ 5.58 µM)	4 (≈ 11.2 µM)	4 (≈ 11.2 µM)	4 (≈ 11.2 µM)	2 (≈ 5.58 µM)	2 (≈ 5.58 µM)	2 (≈ 5.58 µM)	4 (≈ 11.2 µM)	2 (≈ 5.58 µM)	4 (≈ 11.2 µM)	4 (≈ 11.2 µM)	2 (≈ 5.58 µM)	4 (≈ 11.2 µM)	MIC (Enterococcus faecalis [21]): 8 µg/mL (≈ 22.3 µM); MIC (Enterococcus faecalis [22]): 8 µg/mL (≈ 22.3 µM); MIC (Enterococcus faecalis [23]): 8 µg/mL (≈ 22.3 µM)
